Experiments:
[1] = Liver microsomal stability assay, human; conditions: for CLint scaled at 1 h, 1 µM: microsomes; for CLint scaled at 1 µM: liver microsomes
Protocol: (§7) The compounds to be tested were co-incubated with liver microsomes of different species with or without the addition of NADPH. The final concentration of the test compounds in the test system was 1 µM, the final concentration of NADPH was 1 mM, and the final concentration of liver microsomes was 0.5 mg/mL.

[2] = Liver microsomal stability assay, mouse; format: in vitro ADME; conditions: mouse liver microsomes 0.5 mg/mL, compound 1 µM, NADPH 1 mM, 60 minute
Protocol: as §7

[3] = tested on: HCT116-MTAPdel; assay: 2D antiproliferative assay (CTG cell viability), MTAP-deficient cells; format: cell-based; conditions: for IC50: Homo sapiens, HCT-116, HCT116 MTAP-deficient cells, 7-10 days, CTG, read-out: HCT116-MTAPdel/IC50/nM; for HCT116WT IMTAPdel selectivity: ratio IC50 wild type / MTAPdel, antiproliferation
Protocol: (§1) HCT116 wild-type and MTAP-deficient cells were cultured in McCoy's 5A medium containing 10% FBS and 1% penicillin-streptomycin, and cultured in a 37°C, 5% CO2 constant temperature incubator. 40 µL of cell suspension was introduced into each well of a 384-well microplate. 40 nL of different concentrations of test compounds were added to each well using an Echo, before culturing in a 37°C, 5% CO2 constant temperature incubator for 7-10 days. 40 µL of CTG solution (Promega, Cat No. G7573) was added to each well and incubated in a 37°C, 5% CO2 constant temperature incubator for 30 minutes in the dark.

[4] = tested on: HCT116-MTAPwt; assay: 2D antiproliferative assay (CTG cell viability), wild-type cells; format: cell-based; conditions: Homo sapiens, HCT-116, 7-10 days
Protocol: as §1

[5] = tested on: SDMA/HCT116-MTAPwt; assay: In-cell arginine symmetric dimethylation inhibition (In-cell western, ICW), wild-type cells; format: cell-based; conditions: Homo sapiens, HCT-116, 96 hours
Protocol: (§2) 60 nL of different concentrations of compounds were added to each well using an Echo, and incubated at 37°C, 5% CO2 for 96 hours.
(§3) Next, 50 µL of 4% paraformaldehyde solution was added to each well and incubated at room temperature for 20 minutes to fix the cells. The solution in the wells was removed, and each well was rinsed four times with PBS solution containing 0.1% Tween 20 (PBST). To each well was then added 30 µL of ice-cold methanol. After standing at -20°C for 10 minutes, the methanol was removed and the wells washed four times with PBST. 30 µL of Odyssey blocking solution containing 0.5% Tween 20 was added to each well and shaken for 2 hours at room temperature. The blocking solution was removed and 30 µL of primary antibody (Symmetric Di-Methyl Arginine Motif [sdma-RG] MultiMab™ Rabbit mAb mix) diluted at 1:500 in Odyssey blocking solution containing 0.5% Tween 20 was added to each well. The plates were incubated overnight at 4°C, before removing the primary antibody and rinsing each well four times with PBST, 5 minutes per rinse. Secondary antibody (goat anti-rabbit IRDye 800CW, 1:800) and nuclear stain (DRAQ5, 1:10000) diluted in Odyssey blocking solution containing 0.5% Tween 20 were then added to each well before incubating at room temperature for 2 hours in the dark. The secondary antibody was removed, and the wells rinsed four times with PBST.
(§4) The sdme-RG and DRAQ5 signals were scanned at 800 nm and 700 nm respectively on a Li-Cor Odyssey instrument and the signal values recorded. The sdme-RG/DRAQ5 ratio was used to calculate the percentage inhibition of arginine symmetric dimethylation (SDMA), and the IC50 value calculated using GraphPad Prism software.

[6] = Mouse pharmacokinetics testing; format: in vivo, CD1 female mice; conditions: in vivo
Protocol: CD1 female mice were used as test animals and administered the compounds orally/intravenously (oral dosage was 10 mg/kg and intravenous dosage was 2 mg/kg). Test protocol: Each oral and intravenous group consisted of three mice. […] Plasma drug concentrations after oral and intravenous administration were determined by LC/MS/MS, and the collected data analyzed using AB Sciex QTRAP 6500 software.

[7] = tested on: NCI-H838 (MTAPdel) non-small cell lung adenocarcinoma tumor cells; assay: In vivo efficacy, NCI-H838 subcutaneous xenograft; set-up: species or system BALB/c nude mice; conditions: BID, oral; for TGI: 23 consecutive days; for Tumor volume (mm^3)-D1: D1 (baseline at start of dosing)
Protocol: NCI-H838 (MTAPdel) non-small cell lung adenocarcinoma tumor cells were cultured and inoculated into 6-8 week old female BALB/c nude mice (weighing about 20 g), with all mice inoculated subcutaneously. The mice were cultured in an SPF-grade environment, and all mice had free access to commercially certified standard diets. Test compounds were orally administered daily once the average tumor volume of the mice grew to about 140 mm^3. The control group received blank solvent (saline containing 0.1% Tween 80 and 0.5% methyl cellulose), while the test group received a drug dose of 75 mg/kg or 100 mg/kg, twice a day. Tumor volume was measured in two dimensions with calipers three times a week, and the animals were weighed every day. […] Volume calculation formula: V=1/2a*b^2, where a denotes the long diameter of the tumor, and b the short diameter of the tumor.

[8] = tested on: SDMA/HCT116-MTAPdel; assay: In-cell arginine symmetric dimethylation inhibition (In-cell western, ICW), MTAP-deficient cells; format: cell-based; conditions: for IC50: Homo sapiens, HCT-116, HCT116 MTAP-deficient cells, 96 hours; for Selectivity wt/MTAPdel: ratio SDMA IC50 wt / MTAPdel
Protocol: as §2, §3, §4

[9] = tested on: MDR1 (P-gp); assay: in vitro; conditions: dog, MDCK-MDR1, pH 7.4
Protocol: (§5) The membrane permeability of the molecules of the present invention was evaluated to predict their permeability to the brain.
(§6) The specific procedure was: 1. MDCK-MDR1 cells were pre-cultured at a density of 1.56*10^6 cells/mL in a 96-well plate at 37°C for 7 days. 2. The MDCKII-MDR1 plate was taken out of the incubator, rinsed twice with pre-warmed HBSS (10 mM HEPES, pH 7.4), and then incubated at 37°C for 30 minutes. 3. The stock solution of the compound to be tested was diluted with DMSO to obtain a 0.2 mM solution, and then diluted with HBSS (10 mM HEPES, pH 7.4) to obtain a 1 µM working solution. A blank control group was also diluted with DMSO to obtain a 0.2 mM solution, and then diluted with HBSS (10 mM HEPES, pH 7.4) to obtain a 1 µM working solution. The final concentration of DMSO in the culture system was 0.5%. 4. The transport rate of the drug in the apical to basolateral direction was determined: 125 µL of the 1 µM test compound solution was added to a Transwell insert (top compartment), before immediately transferring a 50 µL sample (D0 sample) from the top comparment to a new 96-well plate. The receiving plate wells (basolateral compartment) were filled with 235 µL HBSS (10 mM HEPES, pH 7.4) and incubated at 37°C for 2 hours. 5. Upon completion of the incubation, 50 µL samples were transferred from the donor and acceptor sides to the wells of a new 96-well plate, before adding 4 volumes of cold acetonitrile containing an appropriate internal standard (IS). Prior to LC-MS/MS analysis, 100 µL of the supernatant was taken and mixed with an appropriate volume of ultrapure water. Papp = (VA×[drug]acceptor)/(Area×Time×[drug]initial,donor) [formula] where VA is the volume of the receptor pores (unit:mL), Area is the surface area of the membrane (0.143 cm^2 for a Transwell-96 well permeable support), and time is the total transport time in seconds. Efflux Ratio = Papp(B−A) /Papp(A−B) [formula]

[10] = in vitro; conditions: dog, MDCK-MDR1, pH 7.4
Protocol: as §5, §6

[11] = Membrane permeability: Caco-2 assay; format: in vitro ADME; conditions: human
Protocol: The membrane permeability of the molecules of the invention was evaluated. […] Efflux Ratio = Papp(B−A) /Papp(A−B) [formula]

[12] = tested on: HUP-T4 (MTAPdel) human pancreatic cancer tumor cells; assay: In vivo efficacy, HUP-T4 subcutaneous xenograft; set-up: species or system BALB/c nude mice; conditions: BID, oral; for TGI: 28 consecutive days; for Tumor volume (mm^3)-D1: D1 (baseline at start of dosing)
Protocol: HUP-T4 (MTAPdel) human pancreatic cancer tumor cells (MEM medium with 10% fetal bovine serum) were cultured and inoculated into 6-8 week old female BALB/c nude mice (weighing about 25 g), with all mice subcutaneously inoculated. The mice were cultured in an SPF-grade environment, and all mice had free access to commercially certified standard diets. Test compounds were orally administered daily once the average tumor volume of the mice grew to about 176 mm^3. The control group received blank solvent (0.1% TW80+0.5% methylcellulose+99.4% saline), while the test group received a drug dose of 75 mg/kg or 50 mg/kg, twice a day. Tumor volume was measured in two dimensions with calipers three times a week, and the animals were weighed every day. […] Voume calculation formula: V=1/2a*b^2, where a denotes the long diameter of the tumor, and b the short diameter of the tumor.

[13] = female, CD1, mouse, iv, 2 mg/kg
[14] = female, CD1, mouse, po, 10 mg/kg
[15] = Caco-2, apical pH 6.5, basolateral pH 7.4

Compound	IC50 [3] [nM]	HCT116WT IMTAPdel selectivity [3]	IC50 [4] [nM]	CLint scaled at 1 µM [1] [mL/min/kg]	IC50 [5] [nM]	CLint scaled at 1 µM [2] [mL/min/kg]	F ([6]; female, CD1, mouse) [%]	AUC(0-t) [6, 13] [ng·h/mL]	C0 [6, 13] [ng/mL]	clearance [6, 13] [mL/min/kg]	half-life [6, 13] [h]	AUC(0-t) [6, 14] [ng·h/mL]	Cmax [6, 14] [ng/mL]	Tmax [6, 14] [h]	half-life [6, 14] [h]	IC50 [8] [nM]	Selectivity wt/MTAPdel [8]	efflux ratio [9]	Papp A→B [10] [×10⁻⁶ cm/s]	Papp B→A [10] [×10⁻⁶ cm/s]	other results
C[C@H](c1ncccn1)N(Cc1ccc(C(F)(F)F)cn1)C(=O)C(=O)Nc1cnc(N)c2c1cnn2C [Compound P1]	9	22	196	–	–	–	–	–	–	–	–	–	–	–	–	–	–	–	–	–	CLint scaled at 1 h, 1 µM [1]: 18 mL/min/kg; CLint scaled at 1 h, 1 µM [2]: 177 mL/min/kg
CN(C(=O)C(=O)Nc1cnc(N)c2c1cnn2C)[C@@H]1COc2cc(C(F)(F)F)ccc21 [Compound P2a]	5	216	1080	7.4	1530	55	69	402	345	82.4	1.2	1380	707	0.25	1.2	0.5	3054	1.5	14.8	22.1	TGI ([7]; 75 mg/kg): 92%; Tumor volume (mm^3)-D1 ([7]; 75 mg/kg): 140 mm^3; Tumor volume (mm^3)-D23 ([7]; 75 mg/kg): 350 mm^3; TGI ([7]; 100 mg/kg): 97%; Tumor volume (mm^3)-D1 ([7]; 100 mg/kg): 140 mm^3; Tumor volume (mm^3)-D23 ([7]; 100 mg/kg): 180 mm^3
CN(C(=O)C(=O)Nc1cnc(N)c2c1cnn2C)[C@@H]1COCc2nc(C(F)(F)F)ccc21 [Compound P9a]	12	333	4000	2.1	2450	10	77	3990	5650	8.3	1.2	15400	10800	0.25	1.1	0.9	2722	–	–	–	efflux ratio ([11]; Caco-2, Efflux Ratio = Papp(B-A)/Papp(A-B)): 2.9; Papp A→B [11, 15]: 8.65 ×10⁻⁶ cm/s; Papp B→A [11, 15]: 25.1 ×10⁻⁶ cm/s
CCN(C(=O)C(=O)Nc1cnc(N)c2c1cnn2C)[C@@H]1COc2cc(C(F)(F)F)ccc21 [Compound P19a]	6	181	1080	–	–	–	–	–	–	–	–	–	–	–	–	–	–	–	–	–	CLint scaled at 1 h, 1 µM [1]: 20 mL/min/kg; CLint scaled at 1 h, 1 µM [2]: 110 mL/min/kg; F ([6]; mouse): 59%; AUC(0-t) at 24 h ([6]; mouse, iv, 2 mg/kg): 1480 ng·h/mL; C0 ([6]; mouse, iv, 2 mg/kg): 1210 ng/mL; clearance ([6]; mouse, iv, 2 mg/kg): 21.5 mL/min/kg; half-life ([6]; mouse, iv, 2 mg/kg): 2.1 h; AUC(0-t) at 24 h ([6]; mouse, po, 10 mg/kg): 4390 ng·h/mL; Cmax ([6]; mouse, po, 10 mg/kg): 1100 ng/mL; Tmax ([6]; mouse, po, 10 mg/kg): 0.5 h; half-life ([6]; mouse, po, 10 mg/kg): 6.8 h
[2H]C([2H])([2H])N(C(=O)C(=O)Nc1cnc(N)c2c1cnn2C)[C@@H]1COc2cc(C(F)(F)F)ccc21 [Compound P22]	6	160	961	7.8	298	46.2	62	896	1140	35.5	2.6	2660	1180	0.25	2.2	0.2	1490	1.38	14.9	20.6	TGI ([12]; 50 mg/kg): 102%; Tumor volume (mm^3)-D1 ([12]; 50 mg/kg): 176 mm^3; Tumor volume (mm^3)-D28 ([12]; 50 mg/kg): 158 mm^3; TGI ([12]; 75 mg/kg): 104%; Tumor volume (mm^3)-D1 ([12]; 75 mg/kg): 176 mm^3; Tumor volume (mm^3)-D28 ([12]; 75 mg/kg): 146 mm^3
CCN(C(=O)C(=O)Nc1cnc(N)c2c1cnn2C)[C@@H]1COCc2nc(C(F)(F)F)ccc21 [Compound P28]	10	119	1190	4.8	–	–	–	–	–	–	–	–	–	–	–	–	–	3.2	10.7	34	–
CN(C(=O)C(=O)Nc1cnc(N)c2c1cnn2C)C1COc2cc(S(=O)(=O)C(F)(F)F)ccc21 (centres unmarked) [Compound P33]	9	162	1460	–	–	–	–	–	–	–	–	–	–	–	–	–	–	4.2	6.86	28.8	–
